From publication PMC3312789 (Journal of Immunology (Baltimore, Md. : 1950), 2008) come the findings set out here.

Common to all, as to experiment: In vitro HLA-DR peptide binding assay
Test [1] has as its target HLA DRB1*1101 (Homo sapiens, UniProt P01903+P01911, A100R/A169T/A87E/I96F/K41T/L162R/M171V/P40S/Q125H/Q178H/Q39Y/Q99D/R42S/S66Y/T262R/V115G/W38E).
The target in test [2] is HLA DRB1*1501 (Homo sapiens, UniProt P01903+P01911).
Test [3] addresses HLA DRB1*0404 (Homo sapiens, UniProt P01903+P01911, A100R/A169T/F76Y/I96L/K127E/L162R/M171V/N62H/P40V/Q125Y/R42H/S133A/S149N/S66Y/V209L/W38E).
Test [4] concerns the target HLA DRB1*1302 (Homo sapiens, UniProt P01903+P01911, A100E/A169T/K41T/L162R/M171V/P40S/Q125H/Q178H/Q39Y/Q99D/R42S/S66N/T262R/V115G/W38E/Y61H).
For test [5], the target named is HLA DRB1*0301 (Homo sapiens, UniProt P01903+P01911, A100K/A102G/A103R/A169T/F55Y/I96L/K41T/L162R/M171V/P40S/Q125H/Q178H/Q39Y/R42S/S66N/T106N/T262R/W38E/Y61H).
Test [6] addresses HLA DRB1*0101 (Homo sapiens, UniProt P01903+P01911, A100R/D57E/F55L/F60I/F76Y/I96L/L162R/M171V/P40L/Q125E/R42F/V115G/Y59C).
Test [7] concerns the target HLA DRB3*0101 (Homo sapiens, UniProt P01903+P79483).
In test [8] the target is HLA DRB1*0701 (Homo sapiens, UniProt P01903+P01911, A100R/A102G/A103Q/D57E/D86V/E43K/F76Y/K127E/L162R/M171V/P40G/Q125H/Q99D/R33Q/R42Y/R54Q/S133A/S66F/T210M/V115G/Y107V/Y59L/Y89S).
The target of test [9] is HLA DRB1*0405 (Homo sapiens, UniProt P01903+P01911, A100R/A169T/D86S/F76Y/I96L/K127E/L162R/M171V/N62H/P40V/Q125Y/R42H/S133A/S149N/S66Y/V115G/V209L/W38E).
Test [10] concerns the target HLA DRB1*0401 (Homo sapiens, UniProt P01903+P01911, A100K/A169T/F76Y/I96L/K127E/L162R/M171V/N62H/P40V/Q125Y/R42H/S133A/S149N/S66Y/V115G/V209L/W38E).

Where no end group is shown, it is not given here.

Chain of HLA DRB1*1101 (P01903 26-254 limits assumed, other chains not shown): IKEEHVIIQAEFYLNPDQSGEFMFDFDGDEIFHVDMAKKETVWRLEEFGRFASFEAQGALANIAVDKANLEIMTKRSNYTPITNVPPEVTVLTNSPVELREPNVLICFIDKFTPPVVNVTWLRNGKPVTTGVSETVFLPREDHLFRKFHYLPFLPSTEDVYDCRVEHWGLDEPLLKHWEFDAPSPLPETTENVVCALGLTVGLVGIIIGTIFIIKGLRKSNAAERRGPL
Chain of HLA DRB1*0301 (P01903 26-254 limits assumed, other chains not shown): as above
Chain of HLA DRB1*1302 (P01903 26-254 limits assumed, other chains not shown): as above

For HAPAAPANPGLI [34.1], the IC50 in test [1] is above 5 µM; in test [2] it was above 5 µM; in test [3], above 5 µM; in test [4], above 5 µM; in test [5] it was above 5 µM; in [6] it was 3.55 µM. Also, the IC50 in test [7], in test [8], in test [9] and in [10] was above 5 µM throughout.

With AYQQGVTVDSIG [24.2], the IC50 was above 5 µM in test [1]; above 5 µM in test [2]; above 5 µM in test [3]; above 5 µM in [4]; above 5 µM in test [5]; 0.471 µM in test [6]. Further, the IC50 in test [7] is above 5 µM; in test [8] it was 2.72 µM; in test [9], above 5 µM; in test [10] it was 0.212 µM.

Regarding YQQGVTVDSIGM [24.3], the IC50 in test [1], in test [2], in test [3], in test [4], in test [5] and in [6] was above 5 µM each time. The IC50 was above 5 µM in test [7], 0.389 µM in test [8], above 5 µM in [9] and 4.41 µM in [10].

Take DPEDSALLEDPA [30.7]: the IC50 in test [1], in [2], in test [3], in [4], in test [5] and in [6] was above 5 µM in each case. The IC50 in [7] was 1.62 µM; in [8], above 5 µM; in [9] it was above 5 µM; in test [10], above 5 µM.

For the compound `CC(C)C[C@H](NC(=O)[C@H](C)NC(=O)[C@H](CO)NC(=O)[C@H](CC(=O)O)NC(=O)[C@H](CCC(=O)O)NC(=O)[C@@H]1CCCN1)C(=O)N[C@@H](CC(C)C)C(=O)N[C@@H](CCC(=O)O)C(=O)N[C@@H](CC(=O)O)C(=O)N1CCC[C@H]1C(=O)N[C@@H](C)C(=O)NCC(=O)O` [30.8], the 50% inhibitory concentration (IC50) in test [1], in test [2], in test [3], in test [4], in test [5] and in test [6] was above 5 µM each time. In addition, the 50% inhibitory concentration (IC50) in [7] was 2.05 µM; in test [8], above 5 µM; in test [9], above 5 µM; in test [10], above 5 µM.

On to APAAPANPGLII [34.2], for which the IC50 is above 5 µM in test [1]; above 5 µM in [2]; above 5 µM in test [3]; 0.642 µM in test [4]; above 5 µM in test [5]; 1.27 µM in test [6]. The IC50 in test [7], in test [8], in test [9] and in test [10] was above 5 µM in each case.

A word on the IC50: it is the concentration needed to halve the response being measured. Low values mean inhibition by little substance, high ones a need for much substance.
